Results from patent publication US8017612B2, “Piperazine compound and use thereof as a HCV polymerase inhibitor” (priority 2006, dated 2011).

Key:
[1] = molecular target: T1, HCV polymerase (NS5B) type 1a (Hepatitis C virus genotype 1a, UniProt P26664); test: Assay of enzyme (HCV polymerase) inhibitory activity, type 1a enzyme; type: biochemical, HCV type 1a (cloned from the blood of patients)
T1 construct: made in house; host or cells: Escherichia coli (by the 'similar method' of the 1b enzyme)
In short: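 His-tagged NS5B, C-terminal 47 residues deleted, type 1a at 1.5 μg/ml, with 5 μg/ml HCV 3′UTR substrate RNA, 50 μM ATP/GTP/CTP, 2 μM UTP plus [3H]UTP, pH 7.5 Tris, 5 mM MgCl2; 60 min at 25° C. TCA-precipitated RNA counted by scintillation; IC50 from radioactivity with vs. without compound.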

[2] = molecular target: T2, HCV polymerase (NS5B) type 1b (Hepatitis C virus genotype 1b, UniProt P26663); test: Assay of enzyme (HCV polymerase) inhibitory activity, type 1b enzyme; type: biochemical, HCV BK strain (type 1b)
T2 construct: a region encoding NS5B (J Virol 1991 March, 65(3), 1105-13, 544 amino acids after deletion of 47 amino acids on the C-terminal); 6xHis (C); made in house; host or cells: Escherichia coli
In short: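 His-tagged, C-terminally truncated NS5B (BK strain, 1b; 0.5 μg/ml) incubated with compound 60 min at 25 °C on 3′UTR-derived substrate RNA (5 μg/ml), 50 μM ATP/GTP/CTP, 2 μM UTP plus [3H]UTP, pH 7.5. Acid-precipitated RNA counted; IC50 from radioactivity with and without compound.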

[3] = HCV polymerase inhibitory activity IC50, 1a, type 1a enzyme
[4] = HCV polymerase inhibitory activity IC50, 1b, type 1b enzyme
[5] = HCV polymerase inhibitory activity (IC50), 1a, type 1a enzyme 1.5 μg/ml, 25° C., 60 min
[6] = HCV polymerase inhibitory activity (IC50), 1b, type 1b enzyme 0.5 μg/ml, 25° C., 60 min

Compound	IC50 [1, 3] [µM]	IC50 [2, 4] [µM]	IC50 [1, 5] [µM]	IC50 [2, 6] [µM]
CCC(F)(F)c1ccc(CNC(=O)[C@H]2CN(c3cnc4cncnc4n3)CCN2S(=O)(=O)c2ccc(Br)cc2)cc1 [Example 683, (R)-1-(4-bromo-benzenesulfonyl)-4-pteridin-7-yl-piperazine-2-carboxylic acid 4-(1,1-difluoro-propyl)-benzylamide]	< 0.1	< 0.1		
Cc1nnc(NC(=O)N2CCN(S(=O)(=O)c3ccc(OC(F)(F)F)cc3)[C@@H](C(=O)NCc3ccc(C(F)(F)C(F)(F)F)cc3)C2)s1 [Example 552, (R)-4-(4-trifluoromethoxy-benzenesulfonyl)-piperazine-1,3-dicarboxylic acid 1-[(5-methyl-[1,3,4]thiadiazol-2-yl)-amide] 3-(4-pentafluoroethyl-benzylamide)]			> 1	0.1 to 1
O=C(NCc1ccc(OC(F)(F)F)cc1)[C@H]1CN(c2nc3cccnc3s2)CCN1S(=O)(=O)c1ccc(OC(F)(F)F)cc1 [Example 776, (R)-4-thiazolo[5,4-b]pyridin-2-yl-1-(4-trifluoromethoxy-benzenesulfonyl)-piperazine-2-carboxylic acid 4-trifluoromethoxy-benzylamide]	< 0.1	< 0.1		
CC(=O)N1CCN(S(=O)(=O)c2ccc(C(C)C)cc2)[C@@H](C(=O)NCCc2ccccn2)C1 [Example 396, (R)-4-acetyl-1-(4-isopropyl-benzenesulfonyl)-piperazine-2-carboxylic acid (2-pyridin-2-yl-ethyl)-amide]			> 1	> 1
Cc1nc(N2CCN(S(=O)(=O)c3ccc(OC(F)(F)F)cc3)[C@@H](C(=O)NCc3ccc(C(C)C)cc3)C2)sc1C(=O)NCCC(=O)O [Example 361, 3-({2-[(R)-3-(4-isopropyl-benzylcarbamoyl)-4-(4-trifluoromethoxy-benzenesulfonyl)-piperazin-1-yl]-4-methyl-thiazole-5-carbonyl}-amino)-propionic acid]			< 0.1	< 0.1
O=C(NCc1ccc(OC(F)(F)F)cc1)[C@H]1CN(c2nn3cnnc3s2)CCN1S(=O)(=O)c1ccc(C(F)(F)F)cc1 [Example 953, (R)-4-[1,2,4]triazolo[3,4-b][1,3,4]thiadiazol-6-yl-1-(4-trifluoromethyl-benzenesulfonyl)-piperazine-2-carboxylic acid 4-trifluoromethoxy-benzylamide]	< 0.1	< 0.1		
CCc1ccc(S(=O)(=O)N2CCN(c3cnc(CO)cn3)C[C@@H]2C(=O)NCc2ccc(OC(F)(F)F)cc2)cc1 [Example 796, (R)-4-(4-ethyl-benzenesulfonyl)-5′-hydroxymethyl-3,4,5,6-tetrahydro-2H-[1,2′]bipyrazinyl-3-carboxylic acid 4-trifluoromethoxy-benzylamide]	< 0.1	< 0.1		
O=C(NCc1ccc(OC(F)(F)F)cc1)[C@H]1CN(c2nc3cncnc3s2)CCN1S(=O)(=O)c1ccc(OC(F)(F)F)cc1 [Example 885, (R)-4-thiazolo[5,4-d]pyrimidin-2-yl-1-(4-trifluoromethoxy-benzenesulfonyl)-piperazine-2-carboxylic acid 4-trifluoromethoxy-benzylamide]	< 0.1	< 0.1		
O=C(NCc1ccc(OC(F)(F)F)cc1)[C@H]1CN(c2nc3nc(C4CC4)[nH]c(=O)c3s2)CCN1S(=O)(=O)c1ccc(OC(F)(F)F)cc1 [Example 1108, (R)-4-(5-cyclopropyl-7-oxo-6,7-dihydro-thiazolo[4,5-d]pyrimidin-2-yl)-1-(4-trifluoromethoxy-benzenesulfonyl)-piperazine-2-carboxylic acid 4-trifluoromethoxy-benzylamide]	0.1 to 1	< 0.1		
CCC(F)(F)c1ccc(CNC(=O)[C@H]2CN(c3nc4cnncc4s3)CCN2S(=O)(=O)c2ccc(OC(F)(F)F)cc2)cc1 [Example 694, (R)-4-thiazolo[4,5-d]pyridazin-2-yl-1-(4-trifluoromethoxy-benzenesulfonyl)-piperazine-2-carboxylic acid 4-(1,1-difluoro-propyl)-benzylamide]	< 0.1	< 0.1		
CCCc1ccc(S(=O)(=O)N2CCN(c3nc(C(=O)O)c(C)s3)C[C@@H]2C(=O)NCc2ccc(C(C)C)cc2)cc1 [Example 434, 2-[(R)-3-(4-isopropyl-benzylcarbamoyl)-4-(4-propyl-benzenesulfonyl)-piperazin-1-yl]-5-methyl-thiazole-4-carboxylic acid]			< 0.1	< 0.1
O=C(NCc1ccc(OC(F)(F)F)c(F)c1)[C@H]1CN(c2nc3nc(C4CC4)ncc3s2)CCN1S(=O)(=O)c1ccc(OC(F)(F)F)cc1 [Example 1102, (R)-4-(5-cyclopropyl-thiazolo[4,5-d]pyrimidin-2-yl)-1-(4-trifluoromethoxy-benzenesulfonyl)-piperazine-2-carboxylic acid 3-fluoro-4-trifluoromethoxy-benzylamide]	< 0.1	< 0.1		
CC(C)c1ccc(CNC(=O)[C@H]2CN(C(=O)CCCCCC(=O)O)CCN2S(=O)(=O)c2ccc(C(F)(F)F)cc2)cc1 [Example 317, 7-[(R)-3-(4-isopropyl-benzylcarbamoyl)-4-(4-trifluoromethyl-benzenesulfonyl)-piperazin-1-yl]-7-oxo-heptanoic acid]			0.1 to 1	0.1 to 1
COc1nc(CNC(=O)[C@H]2CN(C(C)=O)CCN2S(=O)(=O)c2ccc(OC(F)(F)F)cc2)ccc1C [Example 649, (R)-4-acetyl-1-(4-trifluoromethoxy-benzenesulfonyl)-piperazine-2-carboxylic acid (6-methoxy-5-methyl-pyridin-2-ylmethyl)-amide]			> 1	> 1
O=C(NCc1ccc(OC(F)(F)C(F)F)cc1)[C@H]1CN(c2nc3cn[nH]c(=O)c3s2)CCN1S(=O)(=O)c1ccc(OC(F)(F)F)cc1 [Example 898, (R)-4-(7-oxo-6,7-dihydro-thiazolo[4,5-d]pyridazin-2-yl)-1-(4-trifluoromethoxy-benzenesulfonyl)-piperazine-2-carboxylic acid 4-(1,1,2,2-tetrafluoro-ethoxy)-benzylamide]	< 0.1	< 0.1		
CNC(=O)c1n[nH]c(=O)c2sc(N3CCN(S(=O)(=O)c4ccc(OC(F)(F)F)cc4)[C@@H](C(=O)NCc4ccc(OC(F)(F)F)cc4)C3)nc12 [Example 875, 7-oxo-2-[(R)-4-(4-trifluoromethoxy-benzenesulfonyl)-3-(4-trifluoromethoxy-benzylcarbamoyl)-piperazin-1-yl]-6,7-dihydro-thiazolo[4,5-d]pyridazine-4-carboxylic acid methylamide]	< 0.1	< 0.1		
NC(=O)c1ncc2sc(N3CCN(S(=O)(=O)c4ccc(C(F)(F)F)cc4)[C@@H](C(=O)NCc4ccc(OC(F)(F)F)cc4)C3)nc2n1 [Example 1013, 2-[(R)-3-(4-trifluoromethoxy-benzylcarbamoyl)-4-(4-trifluoromethyl-benzenesulfonyl)-piperazin-1-yl]-thiazolo[4,5-d]pyrimidine-5-carboxylic acid amide]	< 0.1	< 0.1		
CCCc1ccc(CNC(=O)[C@H]2CN(c3nc4c(C(=O)O)cncc4s3)CCN2S(=O)(=O)c2ccc(OC(F)(F)F)cc2)cc1 [Example 1084, 2-[(R)-3-(4-propyl-benzylcarbamoyl)-4-(4-trifluoromethoxy-benzenesulfonyl)-piperazin-1-yl]-thiazolo[5,4-c]pyridine-7-carboxylic acid]	< 0.1	< 0.1		
CCC(C)(C)c1ccc(CNC(=O)[C@H]2CN(c3cnc4cncc(C(=O)O)c4n3)CCN2S(=O)(=O)c2ccc(Cl)s2)cc1 [Example 858, 2-{(R)-4-(5-chloro-thiophene-2-sulfonyl)-3-[4-(1,1-dimethyl-propyl)-benzylcarbamoyl]-piperazin-1-yl}-pyrido[3,4-b]pyrazine-8-carboxylic acid]	< 0.1	< 0.1		
CCC(F)(F)c1ccc(CNC(=O)[C@H]2CN(C(=O)c3cscn3)CCN2S(=O)(=O)c2ccc(OC(F)(F)F)cc2)cc1 [Example 520, (R)-4-(thiazole-4-carbonyl)-1-(4-trifluoromethoxy-benzenesulfonyl)-piperazine-2-carboxylic acid 4-(1,1-difluoro-propyl)-benzylamide]			> 1	0.1 to 1
O=C(NCc1ccc(OC(F)(F)F)cc1)[C@H]1CN(c2nc3cnncc3s2)CCN1S(=O)(=O)c1ccc(C(F)(F)F)cc1 [Example 897, (R)-4-thiazolo[4,5-d]pyridazin-2-yl-1-(4-trifluoromethyl-benzenesulfonyl)-piperazine-2-carboxylic acid 4-trifluoromethoxy-benzylamide]	< 0.1	< 0.1		
CC(=O)N1CCN(S(=O)(=O)c2ccc(C(C)C)cc2)C(C(=O)NCc2ccc(-c3cnn(C)c3)cc2)C1 (centres unmarked) [Example 108, 4-acetyl-1-(4-isopropyl-benzenesulfonyl)-piperazine-2-carboxylic acid 4-(1-methyl-1H-pyrazol-4-yl)-benzylamide]			> 1	> 1
